From patent US8420598B2, “Mono modified exendin with polyethylene glycol or its derivatives and uses thereof” (B & L Delipharm Corp., priority 2007, dated 2013) come the findings set out here.

In general, pEC50 refers to −log10 of the EC50, conventionally taken in molar units. Higher therefore signals a low EC50. The term AUC denotes concentration integrated over time. Lower therefore signals less exposure.

pEC50: −log10 of the molar value. Where two headings read alike, the source gives them in different places.

Data set [1] concerns pancreatic islet cells of Sprague Dawley rats. The experiment in a line: Assay for promoting insulin secretion (insulin ELISA). Format: cell-based. The conditions noted are these: for pEC50 / insulin secretory capacity: rat islet cells, 0.1-100 nM; for pEC50: 16.7 mM glucose, 2 hours; for insulin secretory capacity: FIG. 5. The procedure: Cells used for this assay were pancreatic islet cells of Sprague Dawley rats, which could be isolated by collagenase digestion and then Ficoll gradient centrifugation. After being cultured for 2˜3 days in an incubator, the isolated pancreatic islet cells were suspended in 1 ml of KRH buffer (16.7 mM glucose) at a density of 20 cells per well into 24-well plates. […] Then, […] of the culture was taken from each well and analyzed for insulin level using an insulin ELISA kit.

Data set [2] deals with db/db mice. The experiment in a line: Animal model test: oral glucose tolerance after s.c. injection. In kind it is in vivo. The conditions noted are these: 1 nmol/kg s.c. 30 min before oral glucose, FIG. 8. The protocol:
30 min before, at the time of, and 15, 30, 60, 120 and 180 min after the oral administration of glucose, blood samples were taken from the tail vein and monitored for glucose level.

Data set [3] deals with db/db mice. The experiment in a line: Measurement of anti-diabetic activity in animals (blood glucose monitoring). Format: in vivo. The conditions noted are these: for time blood glucose kept at normal levels (<150 mg/dL) after injection: s.c., same dosage, db/db mice.
The conditions of data set [4]: rat, in vivo, sc.
Procedure: SD rats weighing 200 g were subcutaneously injected with samples at a dose of 1 nmol/rat (4.18 μg/rat), followed by sampling blood through a tube inserted into the jugular vein. The blood samples were monitored for drug level using an ELISA kit.
The conditions of data set [5]: rat, in vivo, iv.

With “Lys^27-PEG2k-exendin-4: exendin-4 modified at lysine-27 with 2 kDa PEG (mPEG-SPA), Example 2”, in data set [1], the pEC50 was 8.51; the insulin secretory capacity entry is “superior to that of the other modified exendin-4, and similar to that of natural exendin-4”. Also, in the data set on db/db mice [2], the “activity by area under the glucose curve 0 to 180 min” value is listed as “activity similar to that of natural exendin-4”. The “time blood glucose kept at normal levels (<150 mg/dL) after injection” value (shortened to “time blood glucose kept at normal levels”) in the data set on db/db mice [3] is “about 6 hours”. The “time to reach basal line (<2 ng/mL) after administration” value in data set [4] turned out to be 4 h.
Turning to “N^ter-PEG2k-exendin-4: exendin-4 modified at the N-terminus with 2 kDa mPEG-propionaldehyde, Example 1”, in data set [1], the negative-log EC50 (pEC50) was 6.87 and the insulin secretory capacity result is “low insulin secretory capacity”. In the data set with db/db mice [2], the “activity by area under the glucose curve 0 to 180 min” value is “low effects”.
“PEG5k-exendin-4: exendin-4 modified at lysine-27 with 5 kDa mPEG-SPA, Example 2”: in the data set with db/db mice [3], the “time blood glucose kept at normal levels” value stood at 12 h.
Turning to “PEG10k-exendin-4: exendin-4 modified at lysine-27 with 10 kDa mPEG-SPA, Example 2”, in the data set on db/db mice [3], the “time blood glucose kept at normal levels” value stood at 18 h.
In the case of “PEG20k-Exendin-4 (bi-branched): exendin-4 modified with 20 kDa bi-branched PEG, Example 3”, in the data set on db/db mice [3], the “time blood glucose kept at normal levels” value was “about 8 hours”. Also, in data set [5], the exposure (AUC) is 5717 ± 1015 ng·h/mL, the “Elimination Half Life” value came out at 28.0 ± 10.4 h and the “Volume of Distribution” value is 25.45 ± 16.84 mL.
Consider “PEG20k-exendin-4: exendin-4 modified at lysine-27 with 20 kDa mPEG-SPA, Example 2”, for which the “residual activity (insulin secretion)” value in data set [1] (10 nM, relative to natural exendin-4, FIG. 9) is given as not below 40%. Besides, the “time blood glucose kept at normal levels” value in the data set on db/db mice [3] was “about 36 hours”. Further, the Elimination Half Life in data set [4] was determined as 22.0 ± 1.7 h.
With “PEG23k-Exendin-4 (tri-branched): exendin-4 modified at lysine-27 with 23 kDa tri-branched PEG, Example 3”, in data set [1] (0.1, 1, 10 and 100 nM, FIG. 16), the “promotion of insulin secretion, dose dependence” value is recorded as “promote insulin secretion in a dose-dependent manner”. For the same substance, the “duration of medicinal efficacy” value in the data set with db/db mice [3] (dose of 5 nmol/kg) was in the range of 12 to 18 h. Further, in the data set with db/db mice [3] (dose of 10 nmol/kg), the “duration of medicinal efficacy” value was 36 to 48 h. The “duration of medicinal efficacy” value with db/db mice [3] (dose of 20 nmol/kg) was in the range of 72 to 96 h. Further, in the data set on db/db mice [3] (dose of 50 nmol/kg), the “duration of useful medicinal effects” value was not above 120 h. Besides, in data set [5], the area under the curve (AUC) was 7659 ± 1365 ng·h/mL, the “Elimination Half Life” value was 25.1 ± 9.1 h and the “Volume of Distribution” value came out at 9.41 ± 1.57 mL.
